Source: ChEMBL document CHEMBL6177981, “Bardoxolone Derivatives as Novel Pseudo-Natural Necroptosis Inhibitors by Destabilizing HSP90 Client Proteins” (J Med Chem, 2025)
Active and inactive are the calls of the source.

What was measured:
[1] = tested on: HT-29; assay: Anti-apoptotic activity in TS-induced human HT-29 cells assessed as increase in cell viability at 1.25 to 20 uM preincubated with compound followed by TNF-alpha and SM164 addition and measured after 36 hrs by CellTiter-Lumi luminescent cell viability assay; assay type: functional, cell-based; settings: dose 1.25-20 µM
[2] = tested on: HT-29; assay: Effect on cell morphology in TSZ-induced necroptotic human HT-29 cells at 10 uM measured after 12 hrs by Live-cell super-resolution panoramic microscopic analysis; assay type: functional, cell-based
[3] = tested on: Mus musculus; assay: Anti-necroptotic activity in TNFalpha/Z-VAD-FMK induced SIRS male C57BL/6J mouse model assessed as survival rate at 5 mg/kg, po pre-administered with compound via gavage for 2 hrs followed by […] of Z-VAD-FMK stimulation for 15 mins with subsequent TNF-alpha stimulation for 1 hrs and re-current […] of Z-VAD-FMK stimulation and measured after 8 hrs post SIRS induction relative to control; assay type: functional; settings: time 10 hrs
[4] = tested on: Mus musculus; assay: (§1) Anti-necroptotic activity in TNFalpha/Z-VAD-FMK induced SIRS male C57BL/6J mouse model assessed as reduction in IL6 in intestine at 5 to 10 mg/kg, po pre-administered with compound via gavage for 2 hrs followed by […] of Z-VAD-FMK stimulation for 15 mins with subsequent TNF-alpha stimulation for 1 hrs and re-current […] of Z-VAD-FMK stimulation and measured after 8 hrs post SIRS induction by ELISA; assay type: functional, organism-based; settings: dose 5-10 mg/kg, time 10.0 hrs
[5] = tested on: Mus musculus; assay: as §1, with “IL-1beta” for “IL6”, “spleen” for “intestine”; assay type: functional, organism-based; settings: dose 5-10 mg/kg, time 10.0 hrs
[6] = tested on: Mus musculus; assay: as §1, with “spleen” for “intestine”; assay type: functional, organism-based; settings: dose 5-10 mg/kg, time 10.0 hrs
[7] = tested on: Mus musculus; assay: as §1, with “kidney” for “intestine”; assay type: functional, organism-based; settings: dose 5-10 mg/kg, time 10.0 hrs
[8] = Tmax in Sprague-Dawley rat at 2 mg/kg, iv measured after 24 hrs by LC-MS/MS analysis; assay type: ADME, organism-based; settings: in vivo
[9] = Acute toxicity in male C57BL/6J mouse assessed as survival at 2 g/Kg, po measured within 72 hrs relative to control; assay type: organism-based; settings: in vivo, 2000 mg/kg
[10] = Acute toxicity in male C57BL/6J mouse assessed as structural changes in heart at 2 g/Kg, IG measured after 72 hrs by H and E staining based analysis; assay type: tissue-based; settings: in vivo, po, 2000 mg/kg
[11] = Acute toxicity in male C57BL/6J mouse assessed as structural changes in stomach at 2 g/Kg, IG measured after 72 hrs by H and E staining based analysis; assay type: tissue-based; settings: in vivo, po, 2000 mg/kg
[12] = Acute toxicity in male C57BL/6J mouse assessed as hemorrhage in intestine at 2 g/Kg, IG measured after 72 hrs by H and E staining based analysis; assay type: tissue-based; settings: in vivo, po, 2000 mg/kg
[13] = tested on: HT-29; assay: Upregulation of HSP70 protein level in TSZ-induced human HT-29 cells at 0.625 to 10 uM preincubated with compound followed by Z-VAD-FMK, SM164 and TNFalpha stimulation and measured after 6 hrs by Western blot analysis; assay type: functional, cell-based; settings: dose 0.625-10 µM
[14] = target: T1, Receptor-interacting serine/threonine-protein kinase 1 (Homo sapiens) (UniProt Q13546); assay: Inhibition of RIPK1 phosphorylation at S166 residue in TSZ-induced human HT-29 cells at 10 uM preincubated with compound followed by Z-VAD-FMK, SM164 and TNFalpha stimulation and measured after 6 hrs by Western blot analysis; assay type: cell-based
T1 sequence (whole entry): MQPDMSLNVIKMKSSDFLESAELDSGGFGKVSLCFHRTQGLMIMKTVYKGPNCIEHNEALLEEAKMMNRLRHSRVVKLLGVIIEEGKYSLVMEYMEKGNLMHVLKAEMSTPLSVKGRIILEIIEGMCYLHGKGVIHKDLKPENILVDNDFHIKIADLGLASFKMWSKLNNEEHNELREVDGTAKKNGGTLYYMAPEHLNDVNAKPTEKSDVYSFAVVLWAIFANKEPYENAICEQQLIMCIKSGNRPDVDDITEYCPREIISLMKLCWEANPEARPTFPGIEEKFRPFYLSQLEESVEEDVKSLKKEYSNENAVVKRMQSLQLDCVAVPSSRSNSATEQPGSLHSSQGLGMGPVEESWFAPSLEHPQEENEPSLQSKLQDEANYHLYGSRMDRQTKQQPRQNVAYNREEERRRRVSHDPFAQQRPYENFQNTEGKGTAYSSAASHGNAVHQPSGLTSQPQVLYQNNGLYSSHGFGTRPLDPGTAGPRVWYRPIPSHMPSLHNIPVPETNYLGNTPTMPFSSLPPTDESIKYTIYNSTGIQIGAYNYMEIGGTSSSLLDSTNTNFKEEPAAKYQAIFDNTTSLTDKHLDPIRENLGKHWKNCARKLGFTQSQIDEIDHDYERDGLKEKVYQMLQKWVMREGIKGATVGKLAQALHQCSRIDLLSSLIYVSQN

[15] = tested on: HT-29; assay: Downregulation of RIPK1 protein level in human HT-29 cells incubated for 9 hrs by Western blot analysis; assay type: functional, cell-based; settings: dose 0.75-6 µM
[16] = tested on: HT-29; assay: Downregulation of RIPK3 protein level in human HT-29 cells incubated for 9 hrs by Western blot analysis; assay type: functional, cell-based; settings: dose 0.75-6 µM
[17] = tested on: HT-29; assay: Downregulation of RIPK3 protein level in human HT-29 cells at 6 uM preincubated with MLN4924 for 2 hrs followed by compound addition and measured after 9 hrs by Western blot analysis; assay type: functional, cell-based
[18] = tested on: HT-29; assay: Downregulation of RIPK3 protein level in human HT-29 cells at 6 uM preincubated with Z-VAD-FMK for 2 hrs followed by compound addition and measured after 9 hrs by Western blot analysis; assay type: functional, cell-based
[19] = tested on: HT-29; assay: Downregulation of MLKL protein level in human HT-29 cells at 6 uM preincubated with NH4Cl for 2 hrs followed by compound addition and measured after 9 hrs by Western blot analysis; assay type: functional, cell-based
[20] = tested on: HT-29; assay: Downregulation of MLKL protein level in human HT-29 cells at 6 uM preincubated with Z-VAD-FMK for 2 hrs followed by compound addition and measured after 9 hrs by Western blot analysis; assay type: functional, cell-based
[21] = tested on: HeLa; assay: Upregulation of HSP70 expression in RIPK3-deficient human HeLa cells at 1.5 uM incubated for 9 hrs by Western blot analysis; assay type: functional, cell-based
[22] = tested on: HeLa; assay: Inhibition of RIPK1 protein expression in RIPK3-deficient human HeLa cells at 6 uM preincubated with NH4Cl for 2 hrs followed by compound addition and measured after 9 hrs by Western blot analysis; assay type: functional, cell-based
[23] = tested on: HT-29; assay: Downregulation of RIPK1 protein level in human HT-29 cell supernatant at 6 uM measured after 9 hrs by Western blot analysis; assay type: functional, cell-based
[24] = tested on: HT-29; assay: Downregulation of MLKL protein level in human HT-29 cell supernatant at 6 uM measured after 9 hrs by Western blot analysis; assay type: functional, cell-based
[25] = tested on: HT-29; assay: Downregulation of RIPK1 protein level in human HT-29 cell precipitate at 6 uM measured after 9 hrs by Western blot analysis; assay type: functional, cell-based
[26] = tested on: HT-29; assay: Effect on RIPK3 protein level in human HT-29 cell precipitate at 6 uM measured after 9 hrs by Western blot analysis; assay type: functional, cell-based

Cn1ccc(-c2ccc(NC(=O)[C@]34CCC(C)(C)C[C@H]3[C@H]3C(=O)C=C5[C@@]6(C)C=C(C#N)C(=O)C(C)(C)[C@@H]6CC[C@@]5(C)[C@]3(C)CC4)cc2)n1
Non-toxic: Activity [10] | Activity [11] | Activity [12]
active: Activity [2] | Activity [4] | Activity [5] | Activity [6] | Activity [7] | inhibition [14] | Activity [15] Dose-dependent-effect | Activity [16] Dose-dependent-effect | Activity [17] | Activity [18] | Activity [19] | Activity [20] | Activity [21] | inhibition [22] | Activity [23] | Activity [24]
58%: survival at 5 mg/kg [3]
100%: survival at 72 h [9]
4.98 min: Tmax [8]
inactive: Activity [1] | Activity [13] | Activity [25] | Activity [26]
